According to PubChem BioAssay (NCI):
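Step 1: Grow cells in 96-well plates. Step 2: Expose to compound for 48 hours at 5 concentrations. Step 3: Interpolate endpoints linearly; if unreached, use highest concentration. Abbreviation: GI50, concentration required for 50% inhibition of growth. The concentration for full growth arrest is given as TGI.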

Key:
Assay in all cases: NCI anticancer screen, dose series, 48 h
T-47D breast = system: T-47D breast
EKVX NSCLC = system: EKVX NSCLC
A498 renal = system: A498 renal
K-562 leukemia = system: K-562 leukemia
NCI/ADR-RES ovarian = system: NCI/ADR-RES ovarian
MALME-3M melanoma = system: MALME-3M melanoma
U251 CNS = system: U251 CNS
MCF7 breast = system: MCF7 breast
SNB-19 CNS = system: SNB-19 CNS
HS 578T breast = system: HS 578T breast
786-0 renal = system: 786-0 renal
HOP-62 NSCLC = system: HOP-62 NSCLC
HCC-2998 colon = system: HCC-2998 colon
SF-268 CNS = system: SF-268 CNS
RXF 393 renal = system: RXF 393 renal
OVCAR-5 ovarian = system: OVCAR-5 ovarian
SK-MEL-5 melanoma = system: SK-MEL-5 melanoma
SK-MEL-28 melanoma = system: SK-MEL-28 melanoma
NCI-H522 lung = system: NCI-H522 lung
SF-295 CNS = system: SF-295 CNS
SN12C renal = system: SN12C renal
M14 melanoma = system: M14 melanoma
SNB-75 CNS = system: SNB-75 CNS
CCRF-CEM leukemia = system: CCRF-CEM leukemia
UACC-257 melanoma = system: UACC-257 melanoma
MOLT-4 leukemia = system: MOLT-4 leukemia
OVCAR-8 ovarian = system: OVCAR-8 ovarian
SK-OV-3 ovarian = system: SK-OV-3 ovarian
OVCAR-4 ovarian = system: OVCAR-4 ovarian
NCI-H226 lung = system: NCI-H226 lung
SW-620 colon = system: SW-620 colon
SR leukemia = system: SR leukemia
DU-145 prostate = system: DU-145 prostate
HL-60(TB) leukemia = system: HL-60(TB) leukemia
BT-549 breast = system: BT-549 breast
UACC-62 melanoma = system: UACC-62 melanoma
HOP-92 NSCLC = system: HOP-92 NSCLC
SF-539 CNS = system: SF-539 CNS
NCI-H23 lung = system: NCI-H23 lung
KM12 colon = system: KM12 colon
UO-31 renal = system: UO-31 renal
OVCAR-3 ovarian = system: OVCAR-3 ovarian
A549 NSCLC = system: A549 NSCLC
HT29 colon = system: HT29 colon
SK-MEL-2 melanoma = system: SK-MEL-2 melanoma
HCT-15 colon = system: HCT-15 colon
NCI-H460 lung = system: NCI-H460 lung
CAKI-1 renal = system: CAKI-1 renal
COLO 205 colon = system: COLO 205 colon
MDA-MB-468 breast = system: MDA-MB-468 breast
MDA-MB-435 = system: MDA-MB-435
ACHN renal = system: ACHN renal
PC-3 prostate = system: PC-3 prostate
RPMI-8226 leukemia = system: RPMI-8226 leukemia
LOX IMVI melanoma = system: LOX IMVI melanoma
TK-10 renal = system: TK-10 renal
IGROV1 ovarian = system: IGROV1 ovarian
HCT-116 colon = system: HCT-116 colon
MDA-MB-231 breast = system: MDA-MB-231 breast

Cc1ccc(O)cc1Nc1nc(SCCN2CCOCC2)nc2c1cnn2CC(Cl)c1ccc(Br)cc1 (stereo not drawn)
GI50 (T-47D breast): 2.14 µM | TGI (T-47D breast): > 100 µM | GI50 (EKVX NSCLC): 3.93 µM | TGI (EKVX NSCLC): 60.4 µM | GI50 (A498 renal): 6.88 µM | TGI (A498 renal): 21.7 µM | GI50 (K-562 leukemia): 0.0575 µM | TGI (K-562 leukemia): 2.73 µM | GI50 (NCI/ADR-RES ovarian): 3.13 µM | TGI (NCI/ADR-RES ovarian): 17.3 µM | GI50 (MALME-3M melanoma): 3.71 µM | TGI (MALME-3M melanoma): 16.6 µM | GI50 (U251 CNS): 4.85 µM | TGI (U251 CNS): 17.9 µM | GI50 (MCF7 breast): 3.4 µM | TGI (MCF7 breast): 17.3 µM | GI50 (SNB-19 CNS): 5.93 µM | TGI (SNB-19 CNS): 43.4 µM | GI50 (HS 578T breast): 0.832 µM | TGI (HS 578T breast): 5.67 µM | GI50 (786-0 renal): 6.22 µM | TGI (786-0 renal): 25.4 µM | GI50 (HOP-62 NSCLC): 4.41 µM | TGI (HOP-62 NSCLC): 30.2 µM | GI50 (HCC-2998 colon): 3.93 µM | TGI (HCC-2998 colon): 15.2 µM | GI50 (SF-268 CNS): 7.04 µM | TGI (SF-268 CNS): > 100 µM | GI50 (RXF 393 renal): 0.282 µM | TGI (RXF 393 renal): 3.71 µM | GI50 (OVCAR-5 ovarian): 3.96 µM | TGI (OVCAR-5 ovarian): 18.9 µM | GI50 (SK-MEL-5 melanoma): 4.17 µM | TGI (SK-MEL-5 melanoma): 15.9 µM | GI50 (SK-MEL-28 melanoma): 4.21 µM | TGI (SK-MEL-28 melanoma): 17.4 µM | GI50 (NCI-H522 lung): 2.87 µM | TGI (NCI-H522 lung): 16.5 µM | GI50 (SF-295 CNS): 2.36 µM | TGI (SF-295 CNS): 12 µM | GI50 (SN12C renal): 2.12 µM | TGI (SN12C renal): 13.3 µM | GI50 (M14 melanoma): 2.85 µM | TGI (M14 melanoma): 15.2 µM | GI50 (SNB-75 CNS): 1.24 µM | TGI (SNB-75 CNS): 5.11 µM | GI50 (CCRF-CEM leukemia): 4.03 µM | TGI (CCRF-CEM leukemia): 39.1 µM | GI50 (UACC-257 melanoma): 9.87 µM | TGI (UACC-257 melanoma): 24.7 µM | GI50 (MOLT-4 leukemia): 2.65 µM | TGI (MOLT-4 leukemia): 14.5 µM | GI50 (OVCAR-8 ovarian): 4.45 µM | TGI (OVCAR-8 ovarian): 21.2 µM | GI50 (SK-OV-3 ovarian): 13.6 µM | TGI (SK-OV-3 ovarian): 73.4 µM | GI50 (OVCAR-4 ovarian): 6.84 µM | TGI (OVCAR-4 ovarian): > 100 µM | GI50 (NCI-H226 lung): 3.39 µM | TGI (NCI-H226 lung): 20.4 µM | GI50 (SW-620 colon): 14.6 µM | TGI (SW-620 colon): 78.1 µM | GI50 (SR leukemia): 2.34 µM | TGI (SR leukemia): 17.5 µM | GI50 (DU-145 prostate): 8.92 µM | TGI (DU-145 prostate): > 100 µM | GI50 (HL-60(TB) leukemia): 5.18 µM | TGI (HL-60(TB) leukemia): 28.4 µM | GI50 (BT-549 breast): 10.1 µM | TGI (BT-549 breast): 23.2 µM | GI50 (UACC-62 melanoma): 3.05 µM | TGI (UACC-62 melanoma): 15.5 µM | GI50 (HOP-92 NSCLC): 2.06 µM | TGI (HOP-92 NSCLC): 8.12 µM | GI50 (SF-539 CNS): 3.05 µM | TGI (SF-539 CNS): 13.9 µM | GI50 (NCI-H23 lung): 6.21 µM | TGI (NCI-H23 lung): 19.5 µM | GI50 (KM12 colon): 7.55 µM | TGI (KM12 colon): 29.8 µM | GI50 (UO-31 renal): 2.25 µM | TGI (UO-31 renal): 31.5 µM | GI50 (OVCAR-3 ovarian): 11 µM | TGI (OVCAR-3 ovarian): 64.9 µM | GI50 (A549 NSCLC): 3.18 µM | TGI (A549 NSCLC): 18.5 µM | GI50 (HT29 colon): 3.36 µM | TGI (HT29 colon): 13.6 µM | GI50 (SK-MEL-2 melanoma): 11.2 µM | TGI (SK-MEL-2 melanoma): 24.5 µM | GI50 (HCT-15 colon): 2.82 µM | TGI (HCT-15 colon): 15.8 µM | GI50 (NCI-H460 lung): 4.26 µM | TGI (NCI-H460 lung): 21.8 µM | GI50 (CAKI-1 renal): 3.53 µM | TGI (CAKI-1 renal): 33.1 µM | GI50 (COLO 205 colon): 17.6 µM | TGI (COLO 205 colon): 42.2 µM | GI50 (MDA-MB-468 breast): 1.84 µM | TGI (MDA-MB-468 breast): 4.69 µM | GI50 (MDA-MB-435): 4.72 µM | TGI (MDA-MB-435): 21.5 µM | GI50 (ACHN renal): 2.21 µM | TGI (ACHN renal): 15.4 µM | GI50 (PC-3 prostate): 4.98 µM | TGI (PC-3 prostate): 46.1 µM | GI50 (RPMI-8226 leukemia): 4.37 µM | TGI (RPMI-8226 leukemia): 28.4 µM | GI50 (LOX IMVI melanoma): 1.52 µM | TGI (LOX IMVI melanoma): 3.49 µM | GI50 (TK-10 renal): 15.8 µM | TGI (TK-10 renal): 32.3 µM | GI50 (IGROV1 ovarian): 2.06 µM | TGI (IGROV1 ovarian): 6.08 µM | GI50 (HCT-116 colon): 3.46 µM | TGI (HCT-116 colon): 13.3 µM | GI50 (MDA-MB-231 breast): 2.5 µM | TGI (MDA-MB-231 breast): 14.3 µM
